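Values below derive from 48-hour exposures of cells grown in 96-well plates, with endpoints linearly interpolated between the two concentrations bracketing the appropriate inhibition level. The concentration for 50% growth inhibition is given as GI50.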 Calls of active or inactive are those of the source. Rule as the data show it: active = GI50 up to about 1.1 µM and inactive = higher.
Experiments:
Experiment in all cases: DTP human tumour cell line panel, 48 h
[1] = tested on: SK-MEL-2
[2] = tested on: MCF7
[3] = tested on: SK-MEL-5
[4] = tested on: UACC-62
[5] = tested on: IGROV-1
[6] = tested on: MDA-N
[7] = tested on: UO-31
[8] = tested on: MDA-MB-435
[9] = tested on: M14
[10] = tested on: SF-268
[11] = tested on: A498
[12] = tested on: OVCAR-5
[13] = tested on: PC-3
[14] = tested on: CAKI-1
[15] = tested on: Malme-3M
[16] = tested on: NCI-H226
[17] = tested on: RXF 393
[18] = tested on: K562
[19] = tested on: OVCAR-8
[20] = tested on: Hs-578T
[21] = tested on: SN12C
[22] = tested on: SK-MEL-28
[23] = tested on: OVCAR-4
[24] = tested on: T47D
[25] = tested on: SNB-75
[26] = tested on: HOP-92
[27] = tested on: 786-0
[28] = tested on: U-251
[29] = tested on: MOLT-4
[30] = tested on: NCI-H460
[31] = tested on: DU-145
[32] = tested on: ACHN
[33] = tested on: COLO 205
[34] = tested on: HCC 2998
[35] = tested on: SF-295
[36] = tested on: HT-29
[37] = tested on: OVCAR-3
[38] = tested on: HCT-116
[39] = tested on: CCRF-CEM
[40] = tested on: A549
[41] = tested on: SW-620
[42] = tested on: LOX IMVI
[43] = tested on: UACC-257
[44] = tested on: SNB-19
[45] = tested on: HL-60
[46] = tested on: TK-10
[47] = tested on: NCI-H23
[48] = tested on: SK-OV-3
[49] = tested on: NCI/ADR-RES
[50] = tested on: BT-549
[51] = tested on: HCT-15
[52] = tested on: HOP-62
[53] = tested on: KM12
[54] = tested on: NCI-H522
[55] = tested on: MDA-MB-231
[56] = tested on: EKVX
[57] = tested on: SF-539

In the case of `COc1ccc(-c2oc3cc(OC)c(OC)c(OC)c3c(=O)c2OC)cc1OC` [HEXAMETHOXYFLAVONE], the GI50 [1] is reported as > 100 µM (inactive), the GI50 [2] is reported as > 100 µM (inactive) and the GI50 [3] is reported as 53.8 µM (inactive). The GI50 [4] was > 100 µM (inactive), the GI50 [5] was > 100 µM (inactive) and the GI50 [6] was > 100 µM (inactive). The GI50 [7] was 79.1 µM (inactive), the GI50 [8] was > 100 µM (inactive) and the GI50 [9] was > 100 µM (inactive). The GI50 [10] was > 100 µM (inactive), the GI50 [11] was > 100 µM (inactive) and the GI50 [12] was > 100 µM (inactive). The GI50 [13] was > 100 µM (inactive), the GI50 [14] was > 100 µM (inactive) and the GI50 [15] was > 100 µM (inactive). The GI50 [16] was > 100 µM (inactive), the GI50 [17] was > 100 µM (inactive) and the GI50 [18] was > 100 µM (inactive). The GI50 [19] was > 100 µM (inactive), the GI50 [20] was > 100 µM (inactive) and the GI50 [21] was > 100 µM (inactive). For the same molecule, the GI50 [22] was > 100 µM (inactive), the GI50 [23] was > 100 µM (inactive) and the GI50 [24] was 79.6 µM (inactive). For the same molecule, the GI50 [25] was > 100 µM (inactive), the GI50 [26] was 16.4 µM (inactive) and the GI50 [27] was > 100 µM (inactive). For the same molecule, the GI50 [28] was > 100 µM (inactive), the GI50 [29] was > 100 µM (inactive) and the GI50 [30] was > 100 µM (inactive). The GI50 [31] was > 100 µM (inactive), the GI50 [32] was > 100 µM (inactive) and the GI50 [33] was > 100 µM (inactive). The GI50 [34] was > 100 µM (inactive), the GI50 [35] was > 100 µM (inactive) and the GI50 [36] was > 100 µM (inactive). For the same molecule, the GI50 [37] was > 100 µM (inactive), the GI50 [38] was > 100 µM (inactive) and the GI50 [39] was > 100 µM (inactive). The GI50 [40] was > 100 µM (inactive), the GI50 [41] was > 100 µM (inactive) and the GI50 [42] was > 100 µM (inactive). The GI50 [43] was > 100 µM (inactive), the GI50 [44] was > 100 µM (inactive) and the GI50 [45] was 20.8 µM (inactive). The GI50 [46] was > 100 µM (inactive), the GI50 [47] was > 100 µM (inactive) and the GI50 [48] was > 100 µM (inactive). The GI50 [49] was > 100 µM (inactive), the GI50 [50] was > 100 µM (inactive) and the GI50 [51] was greater than 100 µM. For the same molecule, the GI50 [52] was > 100 µM (inactive), the GI50 [53] was > 100 µM (inactive) and the GI50 [54] was > 100 µM (inactive). For the same molecule, the GI50 [55] was > 100 µM (inactive), the GI50 [56] was > 100 µM (inactive) and the GI50 [57] was > 100 µM (inactive).
